Where “and” joins values, the source holds several entries; their conditions need not be identical. Equal values may be shown once.
Assay: xn = mol fraction of the nth substance listed
Conditions: Fluid (supercritical or subcritical phases), Parallel plate method

CC [ethane] + O=C=O
Conditions | thermal conductivity
291.06 K, Amount density=2940 mol/m3, x2 = 0.5 | 0.0276 W/m/K
291.06 K, Amount density=6960 mol/m3, x2 = 0.5 | 0.099 W/m/K
291.07 K, Amount density=5650 mol/m3, x2 = 0.5 | 0.0554 W/m/K
291.07 K, Amount density=7530 mol/m3, x2 = 0.5 | 0.114 W/m/K
291.08 K, Amount density=435 mol/m3, x2 = 0.5 | 0.0191 W/m/K
291.11 K, Amount density=6960 mol/m3, x2 = 0.5 | 0.104 W/m/K
291.17 K, Amount density=6960 mol/m3, x2 = 0.5 | 0.11 W/m/K
291.18 K, Amount density=6960 mol/m3, x2 = 0.5 | 0.108 W/m/K
291.2 K, Amount density=7530 mol/m3, x2 = 0.5 | 0.144 W/m/K
291.24 K, Amount density=7730 mol/m3, x2 = 0.5 | 0.151 W/m/K
291.26 K, Amount density=7530 mol/m3, x2 = 0.5 | 0.159 W/m/K
291.29 K, Amount density=7530 mol/m3, x2 = 0.5 | 0.158 W/m/K
291.32 K, Amount density=7530 mol/m3, x2 = 0.5 | 0.21 W/m/K
291.33 K, Amount density=7530 mol/m3, x2 = 0.5 | 0.206 W/m/K
291.34 K, Amount density=435 mol/m3, x2 = 0.5 | 0.0192 W/m/K
291.34 K, Amount density=2940 mol/m3, x2 = 0.5 | 0.0274 W/m/K
291.34 K, Amount density=6960 mol/m3, x2 = 0.5 | 0.11 W/m/K
291.34 K, Amount density=7730 mol/m3, x2 = 0.5 | 0.203 W/m/K
291.35 K, Amount density=5650 mol/m3, x2 = 0.5 | 0.0542 W/m/K
291.35 K, Amount density=6960 mol/m3, x2 = 0.5 | 0.111 W/m/K
291.35 K, Amount density=7530 mol/m3, x2 = 0.5 | 0.172 W/m/K
291.5 K, Amount density=435 mol/m3, x2 = 0.5 | 0.0192 W/m/K
291.55 K, Amount density=2940 mol/m3, x2 = 0.5 | 0.0274 W/m/K
291.55 K, Amount density=7730 mol/m3, x2 = 0.5 | 0.128 W/m/K
291.57 K, Amount density=5650 mol/m3, x2 = 0.5 | 0.0553 W/m/K
291.57 K, Amount density=7530 mol/m3, x2 = 0.5 | 0.139 W/m/K
292.05 K, Amount density=6960 mol/m3, x2 = 0.5 | 0.099 W/m/K and 0.0913 W/m/K
292.05 K, Amount density=7530 mol/m3, x2 = 0.5 | 0.106 W/m/K
292.05 K, Amount density=7730 mol/m3, x2 = 0.5 | 0.102 W/m/K
292.08 K, Amount density=435 mol/m3, x2 = 0.5 | 0.0192 W/m/K
292.09 K, Amount density=5650 mol/m3, x2 = 0.5 | 0.0546 W/m/K
292.11 K, Amount density=2940 mol/m3, x2 = 0.5 | 0.0276 W/m/K
292.64 K, Amount density=6630 mol/m3, x2 = 0.74 | 0.0593 W/m/K
293.08 K, Amount density=6710 mol/m3, x2 = 0.26 | 0.0687 W/m/K
293.08 K, Amount density=7530 mol/m3, x2 = 0.5 | 0.0833 W/m/K
293.09 K, Amount density=6960 mol/m3, x2 = 0.5 | 0.0861 W/m/K
293.11 K, Amount density=7730 mol/m3, x2 = 0.5 | 0.0798 W/m/K
293.13 K, Amount density=2940 mol/m3, x2 = 0.5 | 0.0277 W/m/K
293.14 K, Amount density=5650 mol/m3, x2 = 0.5 | 0.052 W/m/K
293.15 K, Amount density=435 mol/m3, x2 = 0.5 | 0.0193 W/m/K
293.15 K, Amount density=877 mol/m3, x2 = 0.26 | 0.0213 W/m/K
293.15 K, Amount density=6630 mol/m3, x2 = 0.74 | 0.0578 W/m/K
293.15 K, Amount density=9120 mol/m3, x2 = 0.74 | 0.213 W/m/K
293.17 K, Amount density=9120 mol/m3, x2 = 0.74 | 0.16 W/m/K
293.24 K, Amount density=9120 mol/m3, x2 = 0.74 | 0.156 W/m/K
293.34 K, Amount density=9120 mol/m3, x2 = 0.74 | 0.135 W/m/K
293.53 K, Amount density=9120 mol/m3, x2 = 0.74 | 0.116 W/m/K
293.64 K, Amount density=3090 mol/m3, x2 = 0.26 | 0.0314 W/m/K
293.95 K, Amount density=9120 mol/m3, x2 = 0.74 | 0.101 W/m/K
294.32 K, Amount density=9120 mol/m3, x2 = 0.74 | 0.0842 W/m/K
294.72 K, Amount density=9120 mol/m3, x2 = 0.74 | 0.0824 W/m/K
294.96 K, Amount density=6710 mol/m3, x2 = 0.26 | 0.075 W/m/K
295.61 K, Amount density=7450 mol/m3, x2 = 0.25 | 0.0795 W/m/K
295.7 K, Amount density=6960 mol/m3, x2 = 0.5 | 0.0639 W/m/K
295.73 K, Amount density=6710 mol/m3, x2 = 0.26 | 0.0845 W/m/K
295.76 K, Amount density=7450 mol/m3, x2 = 0.25 | 0.0843 W/m/K
295.87 K, Amount density=7450 mol/m3, x2 = 0.25 | 0.0833 W/m/K
295.98 K, Amount density=7450 mol/m3, x2 = 0.25 | 0.0881 W/m/K
296.02 K, Amount density=7530 mol/m3, x2 = 0.5 | 0.0642 W/m/K
296.02 K, Amount density=7730 mol/m3, x2 = 0.5 | 0.0595 W/m/K
296.03 K, Amount density=9120 mol/m3, x2 = 0.74 | 0.0663 W/m/K
296.04 K, Amount density=5650 mol/m3, x2 = 0.5 | 0.047 W/m/K
296.05 K, Amount density=6630 mol/m3, x2 = 0.74 | 0.0507 W/m/K
296.05 K, Amount density=6710 mol/m3, x2 = 0.26 | 0.099 W/m/K and 0.101 W/m/K
296.06 K, Amount density=435 mol/m3, x2 = 0.5 | 0.0196 W/m/K
296.06 K, Amount density=6630 mol/m3, x2 = 0.74 | 0.0506 W/m/K
296.06 K, Amount density=8450 mol/m3, x2 = 0.25 | 0.112 W/m/K
296.07 K, Amount density=2940 mol/m3, x2 = 0.5 | 0.0278 W/m/K
296.07 K, Amount density=6960 mol/m3, x2 = 0.5 | 0.062 W/m/K
296.07 K, Amount density=7450 mol/m3, x2 = 0.25 | 0.0888 W/m/K
296.1 K, Amount density=6710 mol/m3, x2 = 0.26 | 0.0958 W/m/K
296.11 K, Amount density=8450 mol/m3, x2 = 0.25 | 0.11 W/m/K
296.12 K, Amount density=446 mol/m3, x2 = 0.25 | 0.0209 W/m/K
296.14 K, Amount density=2940 mol/m3, x2 = 0.25 | 0.0304 W/m/K
296.14 K, Amount density=10780 mol/m3, x2 = 0.25 | 0.0692 W/m/K
296.18 K, Amount density=5680 mol/m3, x2 = 0.25 | 0.075 W/m/K
296.18 K, Amount density=7490 mol/m3, x2 = 0.25 | 0.0914 W/m/K
296.19 K, Amount density=5680 mol/m3, x2 = 0.25 | 0.0751 W/m/K
296.2 K, Amount density=6830 mol/m3, x2 = 0.25 | 0.0909 W/m/K
296.21 K, Amount density=8450 mol/m3, x2 = 0.25 | 0.107 W/m/K
296.22 K, Amount density=6830 mol/m3, x2 = 0.25 | 0.0855 W/m/K
296.22 K, Amount density=7450 mol/m3, x2 = 0.25 | 0.0888 W/m/K and 0.099 W/m/K
296.24 K, Amount density=2940 mol/m3, x2 = 0.25 | 0.0312 W/m/K
296.24 K, Amount density=6710 mol/m3, x2 = 0.26 | 0.118 W/m/K
296.29 K, Amount density=5680 mol/m3, x2 = 0.25 | 0.0757 W/m/K
296.31 K, Amount density=7490 mol/m3, x2 = 0.25 | 0.102 W/m/K
296.34 K, Amount density=6710 mol/m3, x2 = 0.26 | 0.159 W/m/K
296.34 K, Amount density=7490 mol/m3, x2 = 0.25 | 0.107 W/m/K
296.36 K, Amount density=6710 mol/m3, x2 = 0.26 | 0.166 W/m/K
296.38 K, Amount density=6710 mol/m3, x2 = 0.26 | 0.147 W/m/K and 0.193 W/m/K and 0.172 W/m/K
296.39 K, Amount density=6710 mol/m3, x2 = 0.26 | 0.166 W/m/K
296.4 K, Amount density=6710 mol/m3, x2 = 0.26 | 0.18 W/m/K
296.4 K, Amount density=7450 mol/m3, x2 = 0.25 | 0.124 W/m/K
296.4 K, Amount density=7490 mol/m3, x2 = 0.25 | 0.114 W/m/K
296.41 K, Amount density=7450 mol/m3, x2 = 0.25 | 0.117 W/m/K
296.44 K, Amount density=6710 mol/m3, x2 = 0.26 | 0.167 W/m/K
296.44 K, Amount density=7490 mol/m3, x2 = 0.25 | 0.124 W/m/K and 0.13 W/m/K
296.45 K, Amount density=5680 mol/m3, x2 = 0.25 | 0.0719 W/m/K
296.46 K, Amount density=6830 mol/m3, x2 = 0.25 | 0.102 W/m/K
296.52 K, Amount density=2940 mol/m3, x2 = 0.25 | 0.0308 W/m/K
296.52 K, Amount density=6710 mol/m3, x2 = 0.26 | 0.135 W/m/K
296.52 K, Amount density=7450 mol/m3, x2 = 0.25 | 0.131 W/m/K
296.54 K, Amount density=7490 mol/m3, x2 = 0.25 | 0.166 W/m/K
296.56 K, Amount density=446 mol/m3, x2 = 0.25 | 0.0209 W/m/K
296.58 K, Amount density=7450 mol/m3, x2 = 0.25 | 0.157 W/m/K
296.62 K, Amount density=7450 mol/m3, x2 = 0.25 | 0.184 W/m/K
